Peptide text beside a SMILES is read from it.
Columns and labels:
[1] = MTT cell viability (cytotoxicity); type: cell-based; conditions: human, Caco-2 cells (1 × 10^4), synthetic peptides 0.05 mg/mL, no TbOOH, mean ± SD of at least three experiments, read-out: Percentage of Cell Viability, None (c)
[2] = test system: Caco-2 cell monolayer; assay: Transepithelial transport through Caco-2 cell monolayers (Transwell); type: in vitro ADME; conditions: Caco-2 monolayer on Transwell, 21 days, TEER > 1100 Ω × cm^2, 75 µg peptide in 0.75 mL HBSS apical, 37 °C, RP-HPLC UV 220 nm, mean ± SD, n. d. = not detected with RP-HPLC
Procedure: Caco-2 cells were obtained from DISCOG (University of Padova, Padova, Italy). The cells cultured in DMEM (high glucose) supplemented with 10% FBS, were used between 35 and 60 passages. In order to perform transepithelial transport, 8 × 10^4 cells were seeded on Transwell^© cell culture inserts (0.4 µm pore sizes, 12 mm diameter, 1.12 cm^2 grown surface; Corning Life Sciences, Tewksbury, MA, USA). Cells were grown, differentiated for 21 days and the monolayer integrity was estimated by transepithelial electrical resistance (TEER) (Millicell® ERS-2 volt-ohmmeter, EDM Millipore, Darmstadt, Germany) showing values higher than 1100 Ω × cm^2.
The intestinal barrier crossing capacity of the fractions or synthetic peptides through Caco-2 cells monolayer was evaluated using Transwell® insert model according to Tonolo et al.. Briefly, after 21 days of culturing, Caco-2 cells differentiated forming a monolayer that delimited an upper part (apical compartment) and lower part (basolateral compartment). The monolayer was rinsed three times with Hank’s balanced salt solution (HBSS) and 10 mM D-glucose and equilibrated for 30 min at 37 °C. After, cells were incubated in the presence of 0.75 mL HBSS containing 150 µg fraction or 75 µg peptide in the apical chamber at 37 °C for 120 min. Samples collected from both compartments (apical and basolateral) at different times were centrifuged at 11,600× g, filtered with 0.45 µm filter, frozen and lyophilized. Subsequently, the obtained samples were dissolved in 100 µL of 0.1% TFA aqueous solution and evaluated by RP-HPLC and Matrix assisted laser desorption/ionization- time of flight/time of flight mass spectrometry (MALDI-TOF/TOF MS).
The apical and basolateral compartments were evaluated in RP-HPLC using a column Onyx Monolithic C18 100 mm × 4.6 mm, LC column (Phenomenex, Torrance, CA, USA) with a Waters 2695 Separation Module (Milfold, MA, USA) with a Waters 996 Photodiode Array Detector. Separations were performed with a linear gradient from 0–60% ACN in the presence of 0.1% TFA over 20 min at a constant flow rate of 2 mL/min monitoring the peaks by UV detection (λ = 220 nm).
Subsequently, the obtained fractions were analysed with a MALDI-TOF/TOF 4800 mass spectrometer (AB Sciex, Framingham, MA, USA). After an initial full MS scan, enlargements on the MS signals of interest were acquired. For the basolateral fractions, the samples, after lyophilisation, were dissolved in 50 µL of 25% ACN and 0.1% TFA. The analysis was then performed on 2 µL of these solutions mixed with 2 µL of peptide MALDI matrix α-cyano-4-hydroxycynnamic acid (10 mg/mL aqueous 70% acetonitrile/0.1% TFA). The following analytical conditions were set for MALDI-TOF spectra acquisition: positive ion reflector mode, initial mass range 500–3500 Da (the mass range was then adapted for each enlargement), variable laser intensity (3000–3800), shots/sub-spectrum 50, total shots/spectrum 1500 and accelerating voltage of 20 kV. Final data analysis and fragments identification were done on Data Explorer software (AB Sciex, Framingham, MA, USA), utilizing external mass calibration performed with mass peptide standards (Sigma-Aldrich, St Louis, MO, USA).
In order to evaluate the intestinal crossing capacity of the four peptides, Transwell® insert model peptide absorption, was performed. […] After 10 min and 120 min, apical and basolateral compartments were collected and analyzed by RP-HPLC and mass spectrometry.

CC[C@H](C)[C@H](NC(=O)[C@@H]1CCCN1C(=O)CNC(=O)[C@@H](N)CCC(N)=O)C(=O)N[C@H](C(=O)N[C@@H](CC(C)C)C(=O)N[C@@H](CC(N)=O)C(=O)N1CCC[C@H]1C(=O)N[C@@H](Cc1c[nH]c2ccccc12)C(=O)N[C@@H](CC(=O)O)C(=O)N[C@@H](CCC(N)=O)C(=O)N[C@H](C(=O)N[C@@H](CCCCN)C(=O)N[C@@H](CCCNC(=N)N)C(=O)O)C(C)C)C(C)C [Q-14-R] (H-QGPIVLNPWDQVKR-OH)
viability at 24 h, 50 µg/mL [1]: 115 ± 15.6% | RP-HPLC Estimation AP (%) ([2]; 120 min after 30 min equilibration, apical compartment, % of total peptide added): 87.59 ± 12.18% | RP-HPLC Estimation BL (%) ([2]; A-B, 120 min, basolateral compartment, % of initial peptide added apically): 0.02 ± 0.01%

Reference: article PMC7070694, “Identification of New Peptides from Fermented Milk Showing Antioxidant Properties: Mechanism of Action” (Antioxidants, 2020)
